Test results reported in patent US5684018A, “Acyloxyisopropyl carbamates as prodrugs for amine drugs” (Merck & Co., Inc., priority 1994, dated 1997).

What was measured:
[1] = Regeneration of the parent drug by rat plasma hydrolysis of the prodrug; type: in vitro ADME; conditions: 37° C., initial prodrug concentration 6.3×10^-5 M, n=2, HPLC
Method: The rate of hydrolysis of the acetoxyisopropyl carbamate prodrug of [3(R)-2-(piperidine-4-yl)ethyl]-2-piperidone-1-[(3R)-methyl-5-ketopentanoic acid]by plasma enzymes was studied by measuring the formation of the parent amine drug at 37° C. in rat plasma. The reaction was initiated by adding an aqueous solution of the carbamate prodrug to the reaction medium pre-equilibrated at 37° C. in a thermostated water bath. The initial concentration of the prodrug in rat plasma was 6.3×10^-5 M. Samples (100 μl) were withdrawn at intervals and mixed with saturated ammonium sulfate (200 μl), vortex mixed for 10 seconds and centrifuged for 5 minutes at 14,000 g to precipitate plasma proteins. The supernatant was injected directly and analyzed by HPLC on a 20 cm Brownlee Spheri-5 RP-18 column combined with a similar 3 cm guard column. The mobile phase used for the analysis was 0.01M K2 HPO4 buffer (adjusted to pH 6.5 with phosphoric acid) containing 3% acetonitrile at a flow rate of 1 mL/min. The retention time under these conditions for the amine drug was approximately 15 minutes. The concentration of the compounds was measured at 210 nm using a variable wavelength. UV detector.

[2] = oral administration to rats; cited from earlier work

Row | Compound | half-life at 63 µM [1] [min] | regeneration of the parent drug [2]
1 | CC(=O)OC(C)(C)OC(=O)N1CCC(CC[C@@H]2CCCN(CC(=O)N[C@H](C)CC(=O)O)C2=O)CC1 [acetoxyisopropyl carbamate prodrug, {3(R)-2-{1-[2(Acetoxy)isopropoxycarbonylpiperidine-4yl]-ethyl}piperidone-1}-acetyl-3(R)-methyl-β-alanine] | 32 ± 6 | –
2 | CCn1cc(C(=O)O)c(=O)c2cc(F)c(N3CCN(Cc4oc(=O)oc4C)CC3)cc21 [alkylated nofloxacin] | – | regenerated the parent drag
